# Assays:
# [1] = AUCinfinity in Sprague-Dawley rat at 1 mg/kg, iv by LC-MS/MS analysis; format: ADME, organism-based; parameters: time infinity, dose 1 mg/kg, route iv; conditions: in vivo
# [2] = Metabolic stability in human microsomes assessed as intrinsic clearance in presence of NADPH by LC-MS/MS analysis; format: ADME, Microsome
# [3] = Half life in Sprague-Dawley rat at 1 mg/kg, iv by LC-MS/MS analysis; format: ADME, organism-based; conditions: in vivo
# [4] = Cmax in Sprague-Dawley rat at 3 mg/kg, po by LC-MS/MS analysis; format: ADME, organism-based; parameters: dose 3 mg/kg, route po; conditions: in vivo
# [5] = Stability of the compound in human plasma assessed as remaining compound measure after 10 mins by LC-MS/MS analysis; format: ADME, cell-free
# [6] = Stability of the compound in human plasma assessed as half life by LC-MS/MS analysis; format: ADME, cell-free
# [7] = Oral bioavailability in Sprague-Dawley rat at 3 mg/kg by LC-MS/MS analysis; format: ADME, organism-based; conditions: in vivo
# [8] = Stability of the compound in human plasma assessed as remaining compound measure after 30 mins by LC-MS/MS analysis; format: ADME, cell-free; conditions: read-out: Stability
# [9] = AUClast in Sprague-Dawley rat at 3 mg/kg, po by LC-MS/MS analysis; format: ADME, organism-based; parameters: time 0 - last, dose 3 mg/kg, route po; conditions: in vivo
# [10] = Stability of the compound in human plasma assessed as remaining compound measure after 60 mins by LC-MS/MS analysis; format: ADME, cell-free; conditions: read-out: Stability
# [11] = MRT in Sprague-Dawley rat at 1 mg/kg, iv by LC-MS/MS analysis; format: ADME, organism-based; conditions: in vivo
# [12] = Metabolic stability in human liver microsomes assessed as half life in presence of NADPH by LC-MS/MS analysis; format: ADME, Microsome
# [13] = Tmax in Sprague-Dawley rat at 3 mg/kg, po by LC-MS/MS analysis; format: ADME, organism-based; conditions: in vivo
# [14] = Metabolic stability in human liver microsomes assessed as parent compound remaining measured at 60 min in presence of NADPH by LC-MS/MS analysis; format: ADME, Microsome; conditions: read-out: Stability
# [15] = AUClast in Sprague-Dawley rat at 1 mg/kg, iv by LC-MS/MS analysis; format: ADME, organism-based; parameters: time 0 - last, dose 1 mg/kg, route iv; conditions: in vivo
# [16] = Metabolic stability in human liver assessed as intrinsic clearance in presence of NADPH by LC-MS/MS analysis; format: ADME, tissue-based; conditions: read-out: CLH
# [17] = Volume of distribution at steady state in Sprague-Dawley rat at 1 mg/kg, iv by LC-MS/MS analysis; format: ADME, organism-based; conditions: in vivo, read-out: Vdss
# [18] = MRT in Sprague-Dawley rat at 3 mg/kg, po by LC-MS/MS analysis; format: ADME, organism-based; conditions: in vivo
# [19] = Stability of the compound in human plasma assessed as remaining compound measure after 120 mins by LC-MS/MS analysis; format: ADME, cell-free; conditions: read-out: Stability
# [20] = Metabolic stability in human liver microsomes assessed as parent compound remaining measured at 60 min in absence of NADPH by LC-MS/MS analysis; format: ADME, Microsome; conditions: read-out: Stability
structure (smiles),measurement,setting,value
O=C(N[C@@H]1CCCNC1)c1cccc(Nc2ncc(Cl)c(NCc3cccc(F)c3)n2)c1,AUC,[1],386 ng·h/mL
same,CLint scaled,[2],< 9.6 mL/min/kg
same,half-life,[3],3.4 h
same,Cmax,[4],33.6 ng/mL
same,Stability,[5],84%
same,half-life,[6],> 4.82 h
same,bioavailability,[7],17.4%
same,remaining at 0.5 h,[8],90.1%
same,AUC(0-t),[9],188 ng·h/mL
same,remaining at 1 h,[10],90.5%
same,MRT,[11],3.96 h
same,half-life,[12],> 2.42 h
same,Tmax,[13],4 h
same,remaining at 1 h,[14],90.2%
same,AUC(0-t),[15],325 ng·h/mL
same,CLint scaled,[16],< 8.6 mL/min/kg
same,Vd,[17],31 L/kg
same,MRT,[18],3.49 h
same,remaining at 2 h,[19],103%
same,remaining at 1 h,[20],96%

# From ChEMBL document CHEMBL5143560, “Rational drug design to explore the structure-activity relationship (SAR) of TRK inhibitors with 2,4-diaminopyrimidine scaffold” (Eur J Med Chem, 2022)
